Measurements published in patent publication US9868716B2, “Method for preventing and/or treating a subject suffering from asthma” (Hong Kong Baptist University, priority 2014, dated 2018).

Legend:
Lyn = assay: Immunoprecipitation of Lyn phosphorylation in IgE/DNP-HSA-stimulated murine mast cells; format: cell-based, mice; settings: murine BMMC, N7 1 hour, then antigen 5 minutes; FIG. 1a
Method: (§1) Bone marrow-derived mast cells (BMMC) of mice were separated from BALB/c murine marrow and were cultured in RPMI1640 liquid containing IL-3, 10% of calf serum, 100 U/ml of penicillin and 100 μg/ml of streptomycin for 6 weeks. Two markers c-kit and FceRI on cell membranes were detected by using flow cytometric analysis. When double-positive cells detected, having both markers, have exceeded 95%, the cultured cells can be used for the experiment.
(§2) Mast cells were pre-treated with IgE overnight, and were washed by PBS thrice. After re-suspended with medium, they were treated with different concentrations of Nujiangexanthone A for 1 hour. Dinitrophenyl human serum albumin (DNP-HSA) was used to treat the cells for 5 minutes. A/G agarose was added into the cell lysates and the mixtures were rotated at a rotator for 1 hour. Antibodies of Syk, Fyn and Lyn were added, and the mixtures were rotated overnight. On the following day, PBS was used to wash the complex of magnetic beads, antibody and protein for 5 times. A Western Blot loading dye was added into the complex and the mixtures were boiled for 5 minutes. […]
(§3) The results of FIG. 1a are obtained by pretreating the antibody-treated mast cells with N7 and Src family inhibitor PP2 for 1 hour and then treating the cells with antigens for 5 minutes. […] The downstream signal pathways of Syk including MAPKs, NF-kB and AP-1 were then analyzed by Western Blot.

Syk [1] = assay: Western blot of Syk phosphorylation in PMA/ionomycin-treated Jurkat cells; format: cell-based, Human; settings: N7 1 hour, PMA and ionomycin 15 minutes, FIG. 5a
Method: (§4) Jurkat T cells were cultured in RPMI1640 containing 10% fetal calf serum, 100 U/ml of penicillin and 100 μg/ml of streptomycin. The cells were passed once every two days with fresh medium. After pretreating the cells with a medicament, PMA and ionomycin were used to treat the cells at different time points. After the treatments, the cells were collected for biomarker measurements.
(§5) Jurkat T cells culture: in a safe range of concentrations, cells were treated with Nujiangexanthone A in corresponding concentrations for 5, 15 and 30 minutes. The samples were collected and lysed. The samples were then separated by 8% gel in SDS-PAGE and transferred to PVDF membrane. The following antibodies were used to analyze the samples: ERK, JNK, p38, IKK, IkBa, NF-kB and so forth. If the compound is found to interfere with the expression and phosphorylation of the target proteins, a corresponding specific inhibitor may be used to conduct a comparative analysis.
(§6) In one test, Jurkat cells were pretreated with N7 and Src family inhibitor PP2 for 1 hour and then co-treated with PMA and ionomycin for 15 minutes. Then, a plurality of proteins of T cells signaling transduction pathways were measured by Western blot.

Fyn [2] = assay: Immunoprecipitation of Fyn phosphorylation in IgE/DNP-HSA-stimulated murine mast cells; format: cell-based, mice; settings: murine BMMC, N7 1 hour, then antigen 5 minutes; FIG. 1a
Method: as §1, §2, §3

lung tissue = assay: Cytokines in lung tissue of asthma animal models; format: in vivo; settings: asthma model mice; FIG. 7
Method: (§7) Balb/c mice of SPF grade were selected for establishing an asthma animal model. With reference to FIG. 3a, ovalalbumin (OVA) dissolved in PBS with aluminum hydroxide gel was intraperitoneally injected to the mice to trigger systemic allergic responses, i.e. OVA sensitization. Then, atomized OVA was given to stimulate or challenge respiratory tracts of the mice. As such, a control group was prepared. By using the similar approach, treatment groups with an administration of N7 in different concentrations as well as a positive control group with an administration of dexamethasone were established. Also, a further control group of PBS was established by using same volume of PBS to replace OVA and using the PBS to replace the atomized OVA.
Some portions of lung tissue of the animal models were collected to evaluate lung inflammatory status. A portion of the collected lung tissue was isolated to extract RNA, and another portion of the lung tissue was grinded and digested for cytokines measurements.

Syk [3] = target: T1, Syk (Mus musculus, UniProt P48025); assay: Immunohistochemistry of p-Syk in lung tissues of asthma model mice; format: in vivo; settings: FIG. 3d
T1 sequence (P48025 whole entry): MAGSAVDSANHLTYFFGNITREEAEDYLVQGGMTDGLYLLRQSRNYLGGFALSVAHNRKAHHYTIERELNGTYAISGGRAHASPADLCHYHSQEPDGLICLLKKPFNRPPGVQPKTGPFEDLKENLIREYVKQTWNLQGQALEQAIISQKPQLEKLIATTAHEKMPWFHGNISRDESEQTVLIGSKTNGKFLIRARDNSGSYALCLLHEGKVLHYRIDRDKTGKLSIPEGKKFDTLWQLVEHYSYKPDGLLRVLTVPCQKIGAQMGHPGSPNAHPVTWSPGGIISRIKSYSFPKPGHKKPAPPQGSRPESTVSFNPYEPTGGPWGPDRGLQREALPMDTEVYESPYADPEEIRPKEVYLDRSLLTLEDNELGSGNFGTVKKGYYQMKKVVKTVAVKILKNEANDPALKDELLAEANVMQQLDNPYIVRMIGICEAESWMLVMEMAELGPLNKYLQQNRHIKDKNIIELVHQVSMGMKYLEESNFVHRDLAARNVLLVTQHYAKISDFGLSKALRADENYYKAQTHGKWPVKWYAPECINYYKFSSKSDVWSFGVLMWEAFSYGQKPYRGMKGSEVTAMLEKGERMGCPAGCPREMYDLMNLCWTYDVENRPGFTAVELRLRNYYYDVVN
Method: as §7
(§8) Symptoms of the mice were recorded during the test. Peripheral blood of the mice was collected before the end of the test so as to measure the release of IgE. Airway lavages were collected and the supernatants thereof were tested to measure the release of various cytokines. Cells were counted after being fixed and stained. The effect of Nujiangexanthone A on different types of immune cells was studied.

murine spleen cells = assay: ELISA of cytokines in spleen cells of asthma mice; format: in vivo; settings: spleen cells treated with OVA for 3 days, ELISA (IL-4, IL-5, IL-13, IFNγ); FIG. 2a
Method: (§9) Lymph nodes and spleen of mice were collected. The collected tissues were respectively grinded, counted and cultivated. The cultured tissues were stimulated with PMA and ionomycin for 48 hours. The supernatant and the cells were then collected for analysis. The supernatant was used for examining various cytokines, and the cells were used for measuring expressions of various T cell specific proteins by Western blot.
(§10) To obtain the data in FIG. 2a, murine spleen cells were grinded and treated with OVA for 3 days, and then the supernatants of the cell mixtures were collected for ELISA analysis. […] As shown in FIG. 2b and FIG. 2c, the signal transduction proteins in spleen cells were detected. According to the experimental results, N7 inhibits the phosphorylation of Syk in spleen cells of mice having asthma.

Murine BMMCs = assay: Activation of murine mast cells (cytokines, degranulation, Ca2+, LTC4); format: cell-based, BALB/c mice; settings: BMMC
Method: Murine BMMCs were isolated from BALB/c murine marrow and were cultured in a RPMI1640 medium containing IL-3, 10% of calf serum, 100 U/ml of penicillin and 100 μg/ml of streptomycin for 6 weeks. Two markers c-kit and FceRI on cell membranes were detected by using flow cytometric analysis. When double-positive cells detected, having both markers, have exceeded 95%, the cultured cells can be used for the experiment.
(§11) IgE mast cells were pretreated with IgE overnight and washed by PBS thrice. After re-suspended with medium, they were treated with different concentrations of Nujiangexanthone A for 1 hour. DNP-HAS or antigen was then used to treat the cells for 6 hours. The supernatants were collected for measurement. The amounts of TNF-α and IL-6 were measured by an ELISA kit.
as §11, with “15 minutes.” for “6 hours.”, “LTC4” for “TNF-α”, “Ca^2+ as well as the degranulation response” for “IL-6”
The amount of b-Hex was measured to evaluate the degranulation response.

GATA3 = assay: Western Blot of GATA3 in spleen cells of asthma mice; format: in vivo; settings: FIG. 2b, 2c
Method: as §9, §10

Fyn [4] = assay: Western blot of Fyn phosphorylation in PMA/ionomycin-treated Jurkat cells; format: cell-based, Human; settings: N7 1 hour, PMA and ionomycin 15 minutes, FIG. 5a
Method: as §4, §5, §6

Syk [5] = target: T1, Syk; assay: Immunoprecipitation of Syk phosphorylation in IgE/DNP-HSA-stimulated murine mast cells; format: cell-based, mice; settings: murine BMMC, N7 1 hour, then antigen 5 minutes; FIG. 1a
Method: as §1, §2, §3

Zap70 = assay: Western Blot of phosphorylated Zap70 in spleen cells of asthma mice; format: in vivo; settings: FIG. 2b, 2c
Method: as §9, §10

[6] = tested on: Balb/c mice, asthma animal model; assay: OVA asthma animal model; format: in vivo
Method: as §7, §8

Syk [7] = target: T1, Syk; assay: Western Blot of phosphorylated Syk in spleen cells of asthma mice; format: in vivo; design: from tissue; host or cells: mouse spleen cells; settings: spleen cells of mice having asthma; FIG. 2b, 2c
Method: as §9, §10

[8] = tested on: downstream signal pathways of Syk including MAPKs, NF-kB and AP-1; assay: Western Blot of downstream signaling pathways of Syk in murine mast cells; format: cell-based, mice; settings: murine BMMC, FIG. 1b
Method: as §1
as §5, with “Cells” for “Jurkat T cells culture: in a safe range of concentrations, cells”, “A (N7)” for “A”, “sodium dodecyl sulfate polyacrylaminde gel electrophoresis (SDS-PAGE)” for “SDS-PAGE”, “polyvinylidene fluoride (PVDF)” for “PVDF”
The results of FIG. 1a are obtained by pretreating the antibody-treated mast cells with N7 and Src family inhibitor PP2 for 1 hour and then treating the cells with antigens for 5 minutes. Phosphorylation of Syk, Fyn and Lyn were then examined by immunoprecipitation. The results of FIG. 1b are obtained by pretreating the antibody-treated mast cells with N7 and Src family inhibitor PP2 for one hour and then treating with antigens for 15 minutes. The downstream signal pathways of Syk including MAPKs, NF-kB and AP-1 were then analyzed by Western Blot.

PBMC of asthma patients = assay: qPCR of cytokines in PBMC of asthma patients; format: cell-based, human; settings: mRNA by qPCR, FIG. 4
Method: Blood samples were collected from normal (healthy) people and people with asthma Peripheral blood mononuclear cells (PBMC) were isolated. By using Ficoll-density method, the effect of Nujiangexanthone A on the release of various cytokines in the isolated PBMCs was measured by qPCR.

Stat6 = assay: Western Blot of phosphorylated Stat6 in spleen cells of asthma mice; format: in vivo; settings: FIG. 2b, 2c
Method: as §9, §10

T-bet = assay: Western Blot of T-bet in spleen cells of asthma mice; format: in vivo; settings: FIG. 2b, 2c
Method: as §9, §10

Lck = assay: Western blot of Lck phosphorylation in PMA/ionomycin-treated Jurkat cells; format: cell-based, Human; settings: N7 1 hour, PMA and ionomycin 15 minutes, FIG. 5a
Method: as §4, §5, §6

[9] = N7 1 hour, DNP-HAS 15 minutes, dose-dependent, FIG. 6
[10] = N7 1 hour, DNP-HAS 6 hours, ELISA, dose-dependent, FIG. 6

COc1c(O)c(O)c2c(=O)c3c(CC=C(C)C)c(CC=C(C)C)c(O)c(O)c3oc2c1CC=C(C)C [Nujiangexanthone A]
inhibit: degranulation of mast cells (b-Hex) (Murine BMMCs; [9]) | production of leukotriene LTC4 (Murine BMMCs; [9]) | production of IL-6 (Murine BMMCs; [10]) | production of TNF-α (Murine BMMCs; [10])
lower: concentration of calcium (Murine BMMCs; [9])
effectively inhibits: production of IgE in serum ([6]; OVA asthma mice, FIG. 3b)
selectively inhibits: phosphorylation of Syk (Syk [1]) | phosphorylation of Syk (Syk [5])
decreases: infiltrates in peribronchial inflammatory cell ([6]; lung tissues, H&E and PAS, FIG. 3c)
does not inhibit: expression of IFN′ (PBMC of asthma patients)
does not affect: phosphorylation of Lyn (Lyn) | phosphorylation of Fyn (Fyn [2]) | production of IFNγ in lung tissue (lung tissue) | phosphorylation of Fyn (Fyn [4]) | phosphorylation of Lck (Lck)
inhibits: production of IL-4 in lung tissue (lung tissue) | production of IL-5 in lung tissue (lung tissue) | production of IL-13 in lung tissue (lung tissue) | production of LTC4 in lung tissue (lung tissue) | production of PGD2 in lung tissue (lung tissue) | production of eotaxin in lung tissue (lung tissue) | level of phosphorylated Syk in lung tissues (Syk [3]) | production of cytokines in spleen tissues (murine spleen cells) | expression of GATA3 (GATA3) | expression of phosphorylated Zap70 (Zap70) | level of phosphorylated tyrosine in lung tissues ([6]; immunohistochemistry, FIG. 3d) | expression of phosphorylated Syk (Syk [7]) | MAPK signaling pathways ([8]; N7 1 hour, antigen 15 minutes) | nuclear translocation of p65 ([8]; cytoplasm and nucleus separated) | production of IL-5 (PBMC of asthma patients) | production of IL-13 (PBMC of asthma patients) | production of IL-17 (PBMC of asthma patients) | expression of phosphorylated Stat6 (Stat6)
without altering: expression of T-bet (T-bet)
is inhibited: production of transcription factors AP-1 (c-Jun+c-fos) [8]
no cytotoxicity: cytotoxicity (Murine BMMCs; range of concentration used in the activation tests)
